From the NIST ThermoML archive (doi:10.1021/je100687x)

Experiment: xn = mol fraction of the nth substance listed
Details: 101 kPa, Liquid; for electrical conductivity: Crison GLP 31+ conductivimeter

CCCCCCCC[n+]1ccn(C)c1.F[B-](F)(F)F [1-methyl-3-octylimidazolium tetrafluoroborate] + CCO
Details	electrical conductivity [S/m]	viscosity [mPa·s]
288.15 K, x2 = 0	–	686
288.15 K, x2 = 0.0891	–	428.3
288.15 K, x2 = 0.1902	–	244.7
288.15 K, x2 = 0.2927	–	141
288.15 K, x2 = 0.3914	–	73.44
288.15 K, x2 = 0.4911	–	45.24
288.15 K, x2 = 0.5938	–	26.02
288.15 K, x2 = 0.6979	–	14.53
288.15 K, x2 = 0.798	–	7.219
288.15 K, x2 = 0.9002	–	3.499
298.15 K, x2 = 0	0.069	337.4
298.15 K, x2 = 0.0891	–	224.8
298.15 K, x2 = 0.1236	0.108	–
298.15 K, x2 = 0.183	0.143	–
298.15 K, x2 = 0.1902	–	140.9
298.15 K, x2 = 0.2395	0.191	–
298.15 K, x2 = 0.2898	0.239	–
298.15 K, x2 = 0.2927	–	83.3
298.15 K, x2 = 0.3359	0.291	–
298.15 K, x2 = 0.3914	–	46.35
298.15 K, x2 = 0.4147	0.396	–
298.15 K, x2 = 0.4783	0.5	–
298.15 K, x2 = 0.4911	–	29.85
298.15 K, x2 = 0.5316	0.59	–
298.15 K, x2 = 0.5759	0.672	–
298.15 K, x2 = 0.5938	–	17.84
298.15 K, x2 = 0.6135	0.737	–
298.15 K, x2 = 0.6455	0.786	–
298.15 K, x2 = 0.6799	0.834	–
298.15 K, x2 = 0.6979	–	10.39
298.15 K, x2 = 0.7089	0.872	–
298.15 K, x2 = 0.7381	0.911	–
298.15 K, x2 = 0.7667	0.918	–
298.15 K, x2 = 0.7922	0.926	–
298.15 K, x2 = 0.798	–	5.362
298.15 K, x2 = 0.8138	0.92	–
298.15 K, x2 = 0.832	0.903	–
298.15 K, x2 = 0.8472	0.882	–
298.15 K, x2 = 0.8663	0.844	–
298.15 K, x2 = 0.8814	0.8	–
298.15 K, x2 = 0.8938	0.762	–
298.15 K, x2 = 0.9002	–	2.764
298.15 K, x2 = 0.9087	0.696	–
298.15 K, x2 = 0.9197	0.639	–
298.15 K, x2 = 0.9307	0.583	–
298.15 K, x2 = 0.9409	0.526	–
298.15 K, x2 = 0.9502	0.454	–
298.15 K, x2 = 0.9586	0.393	–
298.15 K, x2 = 0.9692	0.304	–
298.15 K, x2 = 0.9771	0.239	–
298.15 K, x2 = 0.9851	0.155	–
298.15 K, x2 = 0.9915	0.0924	–
308.15 K, x2 = 0	–	187.7
308.15 K, x2 = 0.0891	–	132.1
308.15 K, x2 = 0.1902	–	85.86
308.15 K, x2 = 0.2927	–	53.62
308.15 K, x2 = 0.3914	–	31.24
308.15 K, x2 = 0.4911	–	20.79
308.15 K, x2 = 0.5938	–	12.87
308.15 K, x2 = 0.6979	–	7.756
308.15 K, x2 = 0.798	–	4.135
308.15 K, x2 = 0.9002	–	2.206
318.15 K, x2 = 0	–	112.1
318.15 K, x2 = 0.0891	–	81.45
318.15 K, x2 = 0.1902	–	56.18
318.15 K, x2 = 0.2927	–	36.49
318.15 K, x2 = 0.3914	–	22.1
318.15 K, x2 = 0.4911	–	15.44
318.15 K, x2 = 0.5938	–	9.671
318.15 K, x2 = 0.6979	–	6.015
318.15 K, x2 = 0.798	–	3.283
318.15 K, x2 = 0.9002	–	1.802

CCCCn1cc[n+](C)c1.F[B-](F)(F)F [1-butyl-3-methylimidazolium tetrafluoroborate] + CCO
Details	electrical conductivity [S/m]	viscosity [mPa·s]
288.15 K, x2 = 0	–	173.5
288.15 K, x2 = 0.0765	–	121.4
288.15 K, x2 = 0.199	–	69.06
288.15 K, x2 = 0.2894	–	45.23
288.15 K, x2 = 0.3918	–	28.39
288.15 K, x2 = 0.4976	–	18.13
288.15 K, x2 = 0.6001	–	12.35
288.15 K, x2 = 0.717	–	7.86
288.15 K, x2 = 0.7998	–	5.676
288.15 K, x2 = 0.9014	–	3.06
298.15 K, x2 = 0	0.352	99.2
298.15 K, x2 = 0.0368	0.393	–
298.15 K, x2 = 0.0765	–	72.49
298.15 K, x2 = 0.1136	0.522	–
298.15 K, x2 = 0.1492	0.594	–
298.15 K, x2 = 0.199	–	44.05
298.15 K, x2 = 0.2894	–	30.15
298.15 K, x2 = 0.2992	0.939	–
298.15 K, x2 = 0.3918	–	19.7
298.15 K, x2 = 0.4162	1.268	–
298.15 K, x2 = 0.4976	–	12.97
298.15 K, x2 = 0.5137	1.551	–
298.15 K, x2 = 0.5866	1.729	–
298.15 K, x2 = 0.6001	–	9.038
298.15 K, x2 = 0.6426	1.826	–
298.15 K, x2 = 0.6863	1.871	–
298.15 K, x2 = 0.717	–	5.25
298.15 K, x2 = 0.7204	1.874	–
298.15 K, x2 = 0.7498	1.859	–
298.15 K, x2 = 0.7947	1.745	–
298.15 K, x2 = 0.7998	–	4.286
298.15 K, x2 = 0.8394	1.564	–
298.15 K, x2 = 0.8763	1.343	–
298.15 K, x2 = 0.8835	1.297	–
298.15 K, x2 = 0.8908	1.249	–
298.15 K, x2 = 0.9014	–	2.371
298.15 K, x2 = 0.9034	1.155	–
298.15 K, x2 = 0.9134	1.077	–
298.15 K, x2 = 0.9217	1.01	–
298.15 K, x2 = 0.9287	0.94	–
298.15 K, x2 = 0.9347	0.874	–
298.15 K, x2 = 0.9399	0.825	–
298.15 K, x2 = 0.9493	0.733	–
298.15 K, x2 = 0.9564	0.658	–
298.15 K, x2 = 0.9617	0.597	–
298.15 K, x2 = 0.9668	0.536	–
298.15 K, x2 = 0.9755	0.423	–
298.15 K, x2 = 0.9897	0.221	–
298.15 K, x2 = 0.9916	0.194	–
298.15 K, x2 = 0.9934	0.162	–
298.15 K, x2 = 0.9972	0.0851	–
308.15 K, x2 = 0	–	61.3
308.15 K, x2 = 0.0765	–	46.39
308.15 K, x2 = 0.199	–	29.81
308.15 K, x2 = 0.2894	–	21.18
308.15 K, x2 = 0.3918	–	14.45
308.15 K, x2 = 0.4976	–	9.836
308.15 K, x2 = 0.6001	–	7.026
308.15 K, x2 = 0.717	–	4.056
308.15 K, x2 = 0.7998	–	3.363
308.15 K, x2 = 0.9014	–	1.947
318.15 K, x2 = 0	–	40.4
318.15 K, x2 = 0.0765	–	31.43
318.15 K, x2 = 0.199	–	21.16
318.15 K, x2 = 0.2894	–	15.5
318.15 K, x2 = 0.3918	–	11.01
318.15 K, x2 = 0.4976	–	7.691
318.15 K, x2 = 0.6001	–	5.567
318.15 K, x2 = 0.717	–	3.252
318.15 K, x2 = 0.7998	–	2.723
318.15 K, x2 = 0.9014	–	1.641

CCCCCCn1cc[n+](C)c1.F[B-](F)(F)F [1-hexyl-3-methylimidazolium tetrafluoroborate] + CCO
Details	electrical conductivity [S/m]	viscosity [mPa·s]
288.15 K, x2 = 0	–	357.5
288.15 K, x2 = 0.1	–	207.2
288.15 K, x2 = 0.197	–	118.9
288.15 K, x2 = 0.298	–	69.02
288.15 K, x2 = 0.3877	–	48.92
288.15 K, x2 = 0.4921	–	27.71
288.15 K, x2 = 0.6009	–	16.92
288.15 K, x2 = 0.7	–	9.866
288.15 K, x2 = 0.8002	–	5.545
288.15 K, x2 = 0.902	–	2.893
298.15 K, x2 = 0	0.126	190.9
298.15 K, x2 = 0.1	–	119.2
298.15 K, x2 = 0.197	–	72.6
298.15 K, x2 = 0.2439	0.33	–
298.15 K, x2 = 0.298	–	43.77
298.15 K, x2 = 0.3877	–	32.06
298.15 K, x2 = 0.3981	0.565	–
298.15 K, x2 = 0.4566	0.66	–
298.15 K, x2 = 0.4921	–	18.86
298.15 K, x2 = 0.507	0.769	–
298.15 K, x2 = 0.5491	0.877	–
298.15 K, x2 = 0.5861	0.947	–
298.15 K, x2 = 0.6009	–	12.09
298.15 K, x2 = 0.6189	1.034	–
298.15 K, x2 = 0.645	1.083	–
298.15 K, x2 = 0.6708	1.129	–
298.15 K, x2 = 0.6938	1.17	–
298.15 K, x2 = 0.7	–	7.513
298.15 K, x2 = 0.7145	1.206	–
298.15 K, x2 = 0.733	1.216	–
298.15 K, x2 = 0.7495	1.222	–
298.15 K, x2 = 0.7648	1.244	–
298.15 K, x2 = 0.7909	1.25	–
298.15 K, x2 = 0.8002	–	4.191
298.15 K, x2 = 0.8217	1.225	–
298.15 K, x2 = 0.8454	1.19	–
298.15 K, x2 = 0.8637	1.144	–
298.15 K, x2 = 0.8755	1.109	–
298.15 K, x2 = 0.8857	1.07	–
298.15 K, x2 = 0.8946	1.033	–
298.15 K, x2 = 0.902	–	2.284
298.15 K, x2 = 0.9042	0.98	–
298.15 K, x2 = 0.9133	0.929	–
298.15 K, x2 = 0.9214	0.879	–
298.15 K, x2 = 0.9267	0.832	–
298.15 K, x2 = 0.9347	0.778	–
298.15 K, x2 = 0.9437	0.702	–
298.15 K, x2 = 0.9526	0.621	–
298.15 K, x2 = 0.9593	0.57	–
298.15 K, x2 = 0.9686	0.473	–
298.15 K, x2 = 0.9758	0.393	–
298.15 K, x2 = 0.9803	0.331	–
298.15 K, x2 = 0.9858	0.262	–
298.15 K, x2 = 0.9892	0.214	–
298.15 K, x2 = 0.9934	0.147	–
298.15 K, x2 = 0.996	0.102	–
298.15 K, x2 = 0.9979	0.0636	–
308.15 K, x2 = 0	–	110.3
308.15 K, x2 = 0.1	–	74.2
308.15 K, x2 = 0.197	–	46.59
308.15 K, x2 = 0.298	–	29.55
308.15 K, x2 = 0.3877	–	22.1
308.15 K, x2 = 0.4921	–	13.73
308.15 K, x2 = 0.6009	–	9.004
308.15 K, x2 = 0.7	–	5.487
308.15 K, x2 = 0.8002	–	3.278
308.15 K, x2 = 0.902	–	1.867
318.15 K, x2 = 0	–	68.5
318.15 K, x2 = 0.1	–	48.17
318.15 K, x2 = 0.197	–	32.05
318.15 K, x2 = 0.298	–	21.19
318.15 K, x2 = 0.3877	–	16.11
318.15 K, x2 = 0.4921	–	10.3
318.15 K, x2 = 0.6009	–	6.945
318.15 K, x2 = 0.7	–	4.498
318.15 K, x2 = 0.8002	–	2.636
318.15 K, x2 = 0.902	–	1.506
